# Source: patent US7763615B2, “Ecteinascidin analogs for use as antitumour agents” (priority 2001, dated 2010)
# Tests used:
# SK-OV3 = experiment: Inhibition of cells growth by colorimetric assay (SRB), SK-OV3; type: cell-based
# Summary of the method: (§1)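 Seeding density 5×10^3 cells/well; attachment 18 h in drug-free medium; exposure 48 h, 10 to 10^−8 μg/ml. Fixation cold TCA 60 min at 4° C, SRB 10 min, absorbance 490 nm.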
# CYP3A4 = CYP3A4 (Homo sapiens, UniProt P08684); experiment: in vitro; conditions: CYP3A4 (% inhibition)
# CYP3A4, sequence (P08684 whole entry): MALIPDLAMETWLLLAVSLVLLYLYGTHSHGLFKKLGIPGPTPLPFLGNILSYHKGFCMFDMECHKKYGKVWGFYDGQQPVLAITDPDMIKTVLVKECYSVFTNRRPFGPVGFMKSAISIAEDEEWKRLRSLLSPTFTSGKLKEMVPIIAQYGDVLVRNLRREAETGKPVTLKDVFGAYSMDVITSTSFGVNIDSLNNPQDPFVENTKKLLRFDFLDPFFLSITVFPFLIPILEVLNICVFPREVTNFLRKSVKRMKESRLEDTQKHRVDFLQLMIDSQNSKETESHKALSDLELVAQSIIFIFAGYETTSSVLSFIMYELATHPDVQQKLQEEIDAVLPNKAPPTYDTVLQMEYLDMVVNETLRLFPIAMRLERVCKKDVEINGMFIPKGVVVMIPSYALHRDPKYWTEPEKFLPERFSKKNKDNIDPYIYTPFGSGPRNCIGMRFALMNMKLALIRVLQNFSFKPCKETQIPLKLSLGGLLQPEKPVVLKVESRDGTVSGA
# Procedure: For CYP3A4 inhibition assay, the compound were tested at 10 μM in duplicate with a 0.25% final concentration of both methanol and acetonitrile in presence of the fluorescent substrate BFC (50 μM). The conversion of the BFC (7-benzyloxy-4-trifluoromethylcoumarin) in HFC (7-hydroxy-4-trifluoromethylcoumarin) was determined spectro-fluormetry after incubation with the enzyme during 30 min at 37° C.
# (§2) For both assays, the fluorescent intensity measured at t=0 is subtracted from that measured after the appropriate incubation time. The ratio of signal-to-noise is calculated by comparing the fluorescence in incubations containing the test compound to the control samples containing the same solvent vehicle. The percent of control activity is calculated and reported as percent inhibition.
# H-MEC-1 = experiment: Inhibition of cells growth by colorimetric assay (SRB), H-MEC-1; type: cell-based
# Summary of the method: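 SRB colorimetric growth assay: 5×10^3 cells/well, 18 h attachment, 48 h continuous compound exposure at 10–10^−8 μg/ml in DMSO/EtOH/PBS. TCA fixation, SRB stain, OD 490 nm; triplicate wells, GI, TGI and LC derived.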
# [1] = test system: L8, normal rat skeletal muscle cells; conditions: 24 h
# (HEPG2) = conditions: human, 24 h, 30 μM
# DU145 = experiment: cells; type: cell-based
# Summary of the method: as §1
# IGROV = experiment: cells; type: cell-based
# Summary of the method: as §1
# LNCAP = experiment: cells; type: cell-based
# Summary of the method: as §1
# LOVO-DOX = experiment: cells; type: cell-based
# Summary of the method: as §1
# IGROV-ET = experiment: cells; type: cell-based
# Summary of the method: as §1
# MEL-28 = experiment: cells; type: cell-based
# Summary of the method: as §1
# A549 = experiment: cells; type: cell-based
# Summary of the method: as §1
# LOVO = experiment: cells; type: cell-based
# Summary of the method: as §1
# K562 = experiment: cells; type: cell-based
# Summary of the method: as §1
# PANC-1 = experiment: cells; type: cell-based
# Summary of the method: as §1
# HT29 = experiment: cells; type: cell-based
# Summary of the method: as §1
# SK-BR3 = experiment: cells; type: cell-based
# Summary of the method: as §1
# [2] = test system: AML-12, normal mouse liver cells; conditions: 24 h
# CYP2D6 = CYP2D6 (Homo sapiens, UniProt P10635); experiment: in vitro; conditions: CYP2D6 (% inhibition)
# CYP2D6, sequence (P10635 whole entry): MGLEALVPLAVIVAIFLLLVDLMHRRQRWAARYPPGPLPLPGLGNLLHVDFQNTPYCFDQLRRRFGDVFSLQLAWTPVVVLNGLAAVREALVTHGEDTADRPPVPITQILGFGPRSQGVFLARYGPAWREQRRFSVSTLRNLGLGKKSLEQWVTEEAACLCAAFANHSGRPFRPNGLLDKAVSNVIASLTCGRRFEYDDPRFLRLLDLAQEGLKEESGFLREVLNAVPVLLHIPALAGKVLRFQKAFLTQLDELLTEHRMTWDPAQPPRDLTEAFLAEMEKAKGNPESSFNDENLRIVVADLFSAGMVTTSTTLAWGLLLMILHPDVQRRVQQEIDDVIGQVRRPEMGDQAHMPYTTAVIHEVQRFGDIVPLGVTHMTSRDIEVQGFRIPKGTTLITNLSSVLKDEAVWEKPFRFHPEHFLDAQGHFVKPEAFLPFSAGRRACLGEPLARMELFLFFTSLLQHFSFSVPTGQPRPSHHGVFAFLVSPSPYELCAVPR
# Procedure: For CYP2D6 inhibition assay, the compound are tested at 10 μM in duplicate with a 0.25% final concentration of both methanol and acetonitrile in presence of the fluorescent substrate AMMC (3-[2-N,N-diethyl-N-methylammonium)ethyl]-7-methoxy-4-methylcoumarin) at the concentration of 1.5 μM). The conversion of the AMMC in AHMC (3-[2-N,N-diethyl-N-methylammonium)ethyl]-7-hydroxy-4-methylcoumarin) is determined spectrofluorimetry after incubation with the enzyme during 450 min at 37° C.
# as §2
# physchem [3] = conditions: pH 7.4, log D n-Octanol-Dulbecco's PBS pH 7.4
# Procedure: The measurement of partition coefficient was evaluated based on a miniaturized shake-flask procedure. Buffer (Dulbecco's PBS, pH 7.40) was used as the aqueous phase. The tested compound was dissolved in DMSO, at the concentration of 100 μM. The final DMSO concentration (1%.) during the octanol-buffer partitioning are very low to avoid bias on the partitioning. The amount of compound in the buffer phase was determined by HPLC with photodiode array detection after an equilibration phase of 60 min. The amount of compound in the octanol phase is calculated by subtraction of the amount of compound in buffer from the total amount of compound, which is determined from a calibration sample.
# Log D is calculated as the Log10 of the amount of compound in the octanol phase divided by the amount of compound in the buffer phase. The effective range of the log D microassay is approximately −0.5 to +4.5.
# physchem [4] = conditions: pH 7.4, aqueous buffer, Solubility Dulbecco's PBS pH 7.4
# [5] = test system: FDC-P1, normal mouse myelogeous stem cells; conditions: 24 h
# [6] = s9, 60 min, 1 μM
# [7] = test system: H9c2 (2-1), normal rat cardiac muscle cells; conditions: 24 h
# [8] = test system: NRK-52E, normal rat kidney cells; conditions: 24 h
# Procedure: In order to assess the cytotoxicity of the drugs to normal cells, we used 96 well plates plated at a density of 5000 cells per well (except for the FDC-P1 which were plated at 12,000 cells per well) with normal cell lines (ATCC, Table 1) maintained as per the directions of the ATCC: AML-12, normal mouse liver cells; NRK-52E, normal rat kidney cells; L8, normal rat skeletal muscle cells; FDC-P1, normal mouse myelogeous stem cells; and H9c2 (2-1), normal rat cardiac muscle cells. The cells in each plate were permitted to settle overnight before adding the test drug.
# To each well (100 μl medium) 10 μl of drug in media was added at varying concentrations (1×10-10-0.01 mg/ml final concentration) and further incubated overnight at 37° C. with 5% CO2. After 24 h the following assays were performed. All experiments were repeated at least 3 times and were assayed in duplicate.
# MTS assay (CellTiter 96 aqueous) was performed according to the manufacturer's (Promega) directions (for all cell types). Cell viability (mitochondrial activity) is determined via enzymatic conversion of the formazan substrate.
# in vitro = conditions: human, Caco-2
# Source text: The intestinal epithelium permeability is a critical characteristic that determines the rate and extent of human absorption and ultimately the bioavailability of a drug candidate. Caco-2 permeability assay allows a rapid assessment of membrane permeability and thus helps to rank-order compounds in terms of their absorption potential.
# The Caco-2 cell line is a human colon adenocarcinoma cell line that differentiates in culture and resembles the epithelial lining of the human small intestine.
# The apparent permeability coefficients (Papp) was determined in the apical-to-basolateral (A-to-B) direction across the cell monolayers (TC-7 sub-clone of the Caco-2) cultured on polycarbonate membrane filters. Compounds were tested at 50 μM with at a final DMSO concentration of 1%. Samples were analyzed by HPLC-MS or HPLC-MS/MS.
# The test compound was added to the apical side and the Papp was determined based on the rate of appearance of the test compound in the basolateral side after 2 h-incubation. Two reference compounds, propranolol (highly permeable) and ranitidine (poorly permeable), are tested in each assay as controls.
compound,measurement,setting,value
C=COC(=O)Oc1c(OC)c(C)cc2c1[C@@H]1C3[C@@H]4SC[C@]5(NCCc6c5[nH]c5ccccc65)C(=O)COC[C@@H](c5c6c(c(C)c(OC(C)=O)c54)OCO6)N3[C@@H](O)[C@H](C2)N1C (stereo partly shown) [Compound 47],GI50,"SK-OV3; Homo sapiens, SK-OV-3, SK-OV3",8.98 nM
same,CC50,"SK-OV3; Homo sapiens, SK-OV-3, read-out: LC50, SK-OV3",≥ 12100 nM
same,TGI,SK-OV3; SK-OV3,2.88E−07
same,"inhibition at 30 min, 10 µM",CYP3A4,38%
same,TGI,H-MEC-1; H-MEC-1,1.50E−07
same,GI50,"H-MEC-1; Homo sapiens, HMEC-1, H-MEC-1",6.78 nM
same,CC50,"H-MEC-1; Homo sapiens, HMEC-1, read-out: LC50, H-MEC-1",≥ 12100 nM
same,Skeletal,[1],2.57E−08
same,Cell Viability (% inhibition),(HEPG2),18 % inhibition
same,TGI,DU145; DU145,2.06E−08
same,GI50,"DU145; Homo sapiens, DU-145, DU145",5.46 nM
same,CC50,"DU145; Homo sapiens, DU-145, read-out: LC50, DU145",≥ 12100 nM
same,TGI,IGROV,4.07E−08
same,GI50,IGROV; Homo sapiens,10.6 nM
same,CC50,"IGROV; Homo sapiens, read-out: LC50, IGROV",909 nM
same,GI50,"LNCAP; Homo sapiens, LNCaP",2.65 nM
same,CC50,"LNCAP; Homo sapiens, LNCaP, read-out: LC50, LNCAP",9.76 nM
same,TGI,LNCAP; LNCAP,5.08E−09
same,GI50,"LOVO-DOX; Homo sapiens, LOVO-DOX",40.7 nM
same,CC50,"LOVO-DOX; Homo sapiens, read-out: LC50, LOVO-DOX",≥ 12100 nM
same,TGI,LOVO-DOX; LOVO-DOX,1.17E−07
same,GI50,"IGROV-ET; Homo sapiens, IGROV-ET",69.7 nM
same,CC50,"IGROV-ET; Homo sapiens, read-out: LC50, IGROV-ET",≥ 12100 nM
same,TGI,IGROV-ET; IGROV-ET,3.61E−06
same,GI50,"MEL-28; Homo sapiens, SK-MEL-28, MEL-28",4.26 nM
same,CC50,"MEL-28; Homo sapiens, SK-MEL-28, read-out: LC50, MEL-28",207 nM
same,TGI,MEL-28; MEL-28,1.00E−08
same,TGI,A549; A549,7.50E−08
same,GI50,"A549; Homo sapiens, A549, A549, read-out: GI50",33.3 nM
same,CC50,"A549; Homo sapiens, A549, read-out: LC50, A549",1330 nM
same,GI50,"LOVO; Homo sapiens, LoVo",6.26 nM
same,CC50,"LOVO; Homo sapiens, LoVo, read-out: LC50, LOVO",≥ 12100 nM
same,TGI,LOVO; LOVO,4.64E−08
same,GI50,"K562; Homo sapiens, K562, K562",13.1 nM
same,CC50,"K562; Homo sapiens, K562, read-out: LC50, K562",6320 nM
same,TGI,K562; K562,2.11E−06
same,GI50,"PANC-1; Homo sapiens, PANC-1, PANC-1",42.4 nM
same,CC50,"PANC-1; Homo sapiens, PANC-1, read-out: LC50, PANC-1",≥ 12100 nM
same,TGI,PANC-1; PANC-1,1.70E−06
same,TGI,HT29; HT29,1.21E−05
same,GI50,"HT29; Homo sapiens, HT-29, HT29",38.8 nM
same,CC50,"HT29; Homo sapiens, HT-29, read-out: LC50, HT29",≥ 12100 nM
same,GI50,"SK-BR3; Homo sapiens, SK-BR-3, SK-BR3",7.56 nM
same,CC50,"SK-BR3; Homo sapiens, SK-BR-3, read-out: LC50, SK-BR3",693 nM
same,TGI,SK-BR3; SK-BR3,3.47E−08
same,Liver,[2],3.04E−08
same,"inhibition at 450 min, 10 µM",CYP2D6,10%
same,logD at 60 min,physchem [3],> 5
same,solubility,physchem [4],< 1 µM
same,Myelo,[5],6.76E−08
same,Human Liver S9 Metabolic Stability (% remaining),[6],5 % remaining
same,Heart,[7],7.36E−08
same,Kidney,[8],3.15E−08
"CC(C)NCC(O)COc1cccc2ccccc12 (stereo not shown) [propranolol, reference compound]","Papp A→B at 2 h, 50 μM",in vitro,> 20 ×10⁻⁶ cm/s
"CNC(=C[N+](=O)[O-])NCCSCc1ccc(CN(C)C)o1 [ranitidine, reference compound]","Papp A→B at 2 h, 50 μM",in vitro,< 5 ×10⁻⁶ cm/s
